Laboratory results reported in ChEMBL document CHEMBL4007428, “Modulating the selectivity of matriptase-2 inhibitors with unnatural amino acids” (Eur J Med Chem, 2017).

Assays:
[1] = target: T1, Suppressor of tumorigenicity 14 protein (Homo sapiens, UniProt Q9Y5Y6)
T1 sequence (Q9Y5Y6 whole entry): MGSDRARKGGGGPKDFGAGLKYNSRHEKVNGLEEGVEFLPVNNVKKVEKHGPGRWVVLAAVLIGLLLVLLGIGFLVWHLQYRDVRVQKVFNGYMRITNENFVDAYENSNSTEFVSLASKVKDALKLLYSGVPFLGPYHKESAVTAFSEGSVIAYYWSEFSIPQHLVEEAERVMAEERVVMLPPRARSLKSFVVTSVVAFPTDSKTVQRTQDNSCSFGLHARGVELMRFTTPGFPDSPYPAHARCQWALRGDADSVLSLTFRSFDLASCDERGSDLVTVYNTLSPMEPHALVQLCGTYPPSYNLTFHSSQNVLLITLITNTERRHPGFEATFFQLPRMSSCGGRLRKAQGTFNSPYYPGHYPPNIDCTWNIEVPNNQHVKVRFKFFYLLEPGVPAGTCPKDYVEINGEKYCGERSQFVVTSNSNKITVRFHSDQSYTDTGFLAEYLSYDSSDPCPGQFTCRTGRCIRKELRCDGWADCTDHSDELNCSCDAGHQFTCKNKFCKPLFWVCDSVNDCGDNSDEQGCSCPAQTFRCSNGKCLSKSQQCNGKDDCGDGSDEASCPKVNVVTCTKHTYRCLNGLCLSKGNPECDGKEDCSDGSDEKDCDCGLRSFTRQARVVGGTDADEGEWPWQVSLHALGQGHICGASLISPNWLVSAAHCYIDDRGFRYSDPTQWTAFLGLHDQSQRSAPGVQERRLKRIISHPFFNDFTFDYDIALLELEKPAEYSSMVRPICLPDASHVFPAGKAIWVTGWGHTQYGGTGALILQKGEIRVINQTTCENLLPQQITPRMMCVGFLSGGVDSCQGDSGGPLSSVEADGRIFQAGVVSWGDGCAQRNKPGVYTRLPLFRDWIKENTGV
Description: Inhibition of recombinant human matriptase (596 to 855 residues) expressed in Escherichia coli using Boc-Gln-Ala-ArgAMC as substrate measured for 1200 mins by fluorescence assay

[2] = target: T2, Transmembrane protease serine 6 (Homo sapiens, UniProt Q8IU80); assay: Inhibition of recombinant human C-terminal V5-His-tagged matriptase-2 expressed in Drosophila S2 cells using Boc-Gln-Ala-ArgAMC as substrate measured for 1200 mins by fluorescence assay
T2 sequence (Q8IU80 whole entry): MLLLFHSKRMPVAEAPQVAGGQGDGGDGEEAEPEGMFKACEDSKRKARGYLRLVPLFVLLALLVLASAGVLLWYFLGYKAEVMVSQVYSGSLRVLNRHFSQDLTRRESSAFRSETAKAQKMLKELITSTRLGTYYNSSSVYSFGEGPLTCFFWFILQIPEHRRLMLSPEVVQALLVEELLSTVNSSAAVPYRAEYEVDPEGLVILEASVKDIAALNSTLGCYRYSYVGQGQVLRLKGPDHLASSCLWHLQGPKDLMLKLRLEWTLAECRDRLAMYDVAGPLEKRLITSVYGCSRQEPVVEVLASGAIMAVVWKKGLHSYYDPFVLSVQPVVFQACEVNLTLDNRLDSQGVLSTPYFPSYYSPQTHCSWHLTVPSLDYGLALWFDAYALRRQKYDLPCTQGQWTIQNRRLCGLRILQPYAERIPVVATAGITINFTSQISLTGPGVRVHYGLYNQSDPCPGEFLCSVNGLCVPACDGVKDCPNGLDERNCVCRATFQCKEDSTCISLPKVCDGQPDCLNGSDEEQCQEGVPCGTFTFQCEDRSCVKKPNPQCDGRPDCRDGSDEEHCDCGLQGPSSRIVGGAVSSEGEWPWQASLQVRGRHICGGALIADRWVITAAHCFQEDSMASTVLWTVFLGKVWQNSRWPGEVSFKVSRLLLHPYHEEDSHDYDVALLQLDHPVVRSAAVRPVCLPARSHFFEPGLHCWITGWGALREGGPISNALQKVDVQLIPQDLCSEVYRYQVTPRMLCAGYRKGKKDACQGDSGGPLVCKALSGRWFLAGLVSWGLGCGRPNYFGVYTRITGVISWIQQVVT

Homo sapiens = organism: Homo sapiens; assay: Selectivity ratio of Ki for recombinant human matriptase (596 to 855 residues) expressed in Escherichia coli to Ki for recombinant human C-terminal V5-His-tagged matriptase-2 expressed in Drosophila S2 cells
[3] = Stability in mouse plasma assessed as parent compound remaining after 24 hrs; assay type: ADME, cell-free; conditions: read-out: Stability
[4] = target: T3, Transmembrane protease serine 6 (Homo sapiens) (UniProt Q8IU80); assay: Reversible inhibition of recombinant human C-terminal V5-His-tagged matriptase-2 expressed in Drosophila S2 cells assessed as dissociation half time using Boc-Gln-Ala-ArgAMC as substrate measured for 1200 mins by fluorescence assay
T3 sequence (whole entry): T2 sequence (Q8IU80 whole entry)

Ki [1]	Ki [2]	Compound	Ratio Ki (Homo sapiens)	remaining at 24 h [3]	T1/2 [4]
230 nM	4 nM	CC[C@H](C)[C@H](NC(=O)[C@H](CCc1ccccc1)NC(=O)CCc1ccccc1)C(=O)N[C@@H](CCCNC(=N)N)C(=O)c1nc2ccccc2s1	58	–	–
71 nM	3.5 nM	CC(C)[C@H](NC(=O)[C@H](Cc1ccc(OCc2ccccc2)cc1)NC(=O)CCc1ccccc1)C(=O)N[C@@H](CCCNC(=N)N)C(=O)c1nc2ccccc2s1	20	–	–
43 nM	1.74 nM	CC(C)[C@H](NC(=O)C(Cc1ccc(O)cc1)NC(=O)CCc1ccccc1)C(=O)N[C@@H](CCCNC(=N)N)C(=O)c1nc2ccccc2s1 (single isomer, unassigned)	25	–	–
12000 nM	690 nM	CC[C@H](C)[C@@H](NC(=O)[C@H](CCc1ccccc1)NC(=O)CCc1ccccc1)C(=O)N[C@@H](CCCNC(=N)N)C(=O)c1nc2ccccc2s1	17	–	–
1380 nM	340 nM	N=C(N)NCCC[C@H](NC(=O)[C@@H](NC(=O)C(Cc1ccc(O)cc1)NC(=O)CCc1ccccc1)C(c1ccccc1)c1ccccc1)C(=O)c1nc2ccccc2s1 (single isomer, unassigned)	4	–	–
200 nM	3.1 nM	C[C@H](O)[C@H](NC(=O)[C@H](CCc1ccccc1)NC(=O)CCc1ccccc1)C(=O)N[C@@H](CCCNC(=N)N)C(=O)c1nc2ccccc2s1	64	> 75%	–
240 nM	7 nM	CC(C)[C@@H](NC(=O)[C@H](CCc1ccccc1)NC(=O)CCc1ccccc1)C(=O)N[C@@H](CCCNC(=N)N)C(=O)c1nc2ccccc2s1	34	–	–
–	–	CC(C)[C@H](NC(=O)C(Cc1ccc(O)cc1)NC(=O)[C@@H](N)Cc1ccc(O)cc1)C(=O)N[C@@H](CCCNC(=N)N)C(=O)c1nc2ccccc2s1 (single isomer, unassigned)	12	0%	–
20 to 21 nM	1.5 to 1.6 nM	CC[C@H](NC(=O)[C@H](CCc1ccccc1)NC(=O)CCc1ccccc1)C(=O)N[C@@H](CCCNC(=N)N)C(=O)c1nc2ccccc2s1	13	–	18 min
120 nM	5.3 nM	C[C@@H](O)[C@H](NC(=O)[C@H](CCc1ccccc1)NC(=O)CCc1ccccc1)C(=O)N[C@@H](CCCNC(=N)N)C(=O)c1nc2ccccc2s1	23	–	–
39 nM	6 nM	CC(C)[C@H](NC(=O)[C@H](Cc1ccc(O)cc1)NC(=O)CC12CC3CC(CC(C3)C1)C2)C(=O)N[C@@H](CCCNC(=N)N)C(=O)c1nc2ccccc2s1	6	–	–
15000 nM	560 nM	CC(C)(C)[C@H](NC(=O)[C@H](CCc1ccccc1)NC(=O)CCc1ccccc1)C(=O)N[C@@H](CCCNC(=N)N)C(=O)c1nc2ccccc2s1	27	–	–
150 nM	5 nM	CC[C@@H](C)[C@@H](NC(=O)[C@H](CCc1ccccc1)NC(=O)CCc1ccccc1)C(=O)N[C@@H](CCCNC(=N)N)C(=O)c1nc2ccccc2s1	30	–	–
26 nM	2.3 nM	CCC[C@H](NC(=O)[C@H](CCc1ccccc1)NC(=O)CCc1ccccc1)C(=O)N[C@@H](CCCNC(=N)N)C(=O)c1nc2ccccc2s1	11	–	–
28 nM	6 nM	CC(C)CCC(=O)NC(Cc1ccc(O)cc1)C(=O)N[C@H](C(=O)N[C@@H](CCCNC(=N)N)C(=O)c1nc2ccccc2s1)C(C)C (single isomer, unassigned)	5	–	–
65 nM	2.1 nM	CC(C)[C@H](NC(=O)[C@H](CCc1ccccc1)NC(=O)CCc1ccccc1)C(=O)N[C@@H](CCCNC(=N)N)C(=O)c1nc2ccccc2s1	31	–	–
120 nM	5.2 nM	CC(C)C[C@H](NC(=O)[C@H](CCc1ccccc1)NC(=O)CCc1ccccc1)C(=O)N[C@@H](CCCNC(=N)N)C(=O)c1nc2ccccc2s1	23	–	–
51 nM	2.6 nM	CC[C@@H](C)[C@H](NC(=O)[C@H](CCc1ccccc1)NC(=O)CCc1ccccc1)C(=O)N[C@@H](CCCNC(=N)N)C(=O)c1nc2ccccc2s1	20	–	–

Compound	Ki [1]	Ki [2]	Ratio Ki (Homo sapiens)	remaining at 24 h [3]	T1/2 [4]
CC(C)[C@H](NC(=O)[C@H](Cc1ccccc1)NC(=O)[C@@H](N)Cc1ccc(O)cc1)C(=O)N[C@@H](CCCNC(=N)N)C(=O)c1nc2ccccc2s1	63 nM	9 nM	7	–	–
N=C(N)NCCC[C@H](NC(=O)[C@H](Cc1ccc(O)c(O)c1)NC(=O)C(Cc1ccc(O)cc1)NC(=O)[C@@H](N)Cc1ccc(O)cc1)C(=O)c1nc2ccccc2s1 (single isomer, unassigned)	12 nM	5 nM	2	–	–
N=C(N)NCCC[C@H](NC(=O)[C@H](Cc1ccc2ccccc2c1)NC(=O)C(Cc1ccc(O)cc1)NC(=O)[C@@H](N)Cc1ccc(O)cc1)C(=O)c1nc2ccccc2s1 (single isomer, unassigned)	–	5.3 nM	–	–	–
CC(C)[C@H](NC(=O)[C@H](Cc1cscn1)NC(=O)CCc1ccccc1)C(=O)N[C@@H](CCCNC(=N)N)C(=O)c1nc2ccccc2s1	4 to 12 nM	0.4 to 1.2 nM	10	> 75%	48 min
CC(C)[C@H](NC(=O)C(Cc1ccc(O)cc1)NC(=O)CCc1ccc(O)cc1)C(=O)N[C@@H](CCCNC(=N)N)C(=O)c1nc2ccccc2s1 (single isomer, unassigned)	34 to 38 nM	1.2 to 2 nM	17	40%	24 min
CC(C)[C@H](NC(=O)[C@H](Cc1cccc(Cl)c1)NC(=O)[C@@H](N)Cc1ccc(O)cc1)C(=O)N[C@@H](CCCNC(=N)N)C(=O)c1nc2ccccc2s1	34 nM	5 nM	7	–	–
N=C(N)NCCC[C@H](NC(=O)[C@H](Cc1c[nH]cn1)NC(=O)C(Cc1ccc(O)cc1)NC(=O)[C@@H](N)Cc1ccc(O)cc1)C(=O)c1nc2ccccc2s1 (single isomer, unassigned)	48 nM	56 nM	0.9	–	–
N=C(N)NCCC[C@H](NC(=O)[C@H](Cc1ccc(O)cc1)NC(=O)C(Cc1ccc(O)cc1)NC(=O)[C@@H](N)Cc1ccc(O)cc1)C(=O)c1nc2ccccc2s1 (single isomer, unassigned)	7 nM	1.1 nM	6	–	–
N=C(N)NCCC[C@H](NC(=O)[C@H](Cc1c[nH]c2ccccc12)NC(=O)C(Cc1ccc(O)cc1)NC(=O)[C@@H](N)Cc1ccc(O)cc1)C(=O)c1nc2ccccc2s1 (single isomer, unassigned)	5.6 nM	3.1 nM	2	–	–
N=C(N)NCCC[C@H](NC(=O)[C@H](Cc1cccs1)NC(=O)C(Cc1ccc(O)cc1)NC(=O)[C@@H](N)Cc1ccc(O)cc1)C(=O)c1nc2ccccc2s1 (single isomer, unassigned)	19 nM	6 nM	3	–	–
N=C(N)NCCC[C@H](NC(=O)[C@H](Cc1cscn1)NC(=O)C(Cc1ccc(O)cc1)NC(=O)[C@@H](N)Cc1ccc(O)cc1)C(=O)c1nc2ccccc2s1 (single isomer, unassigned)	20 nM	13 nM	2	–	–
